Measurements from patent EP0961591B1, “METHOD TO ENHANCE TISSUE AC[…] RADIOLABELED COMPOUNDS” (BOARD OF SUPERVISORS OF LOUISIANA STATE UNIVERSITY AND …, priority 1997, dated 1999).
Several values for one entry are separate records, joined by “and”; a condition that tells them apart may be missing. Equal values may be shown once.

How the values were obtained:
[1] = system: neuroendocrine cancers expressing the somatostatin receptor; test: Pilot clinical trial of monthly 180 mCi doses; format: in vivo, human; settings: ten patients
Experimental: For six months, pilot clinical trials were conducted in ten human patients with progressive metastatic indolent and symptomatic neuroendocrine cancers expressing the somatostatin receptor. […] The first monthly dose was a bolus injection of 180 mCi. The second monthly dose was infusion of 180 mCi over 72 hr. The third monthly dose was infusion of 180 mCi over 24 hr. Thereafter, all monthly doses were infusion of 180 mCi over 24 hr. Clinical benefits (as evidenced by reduced pain, weight gain, reduced malaise, etc.) occurred in 6 of the 10 neuroendocrine (carcinoid/islet cell) patients. Partial radiographic responses (greater than 50% reduction in the product of perpendicular tumor diameters) occurred in 2 patients, and significant tumor necrosis developed in 7 of the 10 neuroendocrine patients. Treatment-related toxicity included 2 Grade III platelet, 1 Grade II WBC, 1 Grade I WBC and 2 Grade I Hb on the NCI (National Cancer Institute) grading scale.

[2] = system: DNA of SKNSH cells; test: Binding to nuclear DNA (DNA extraction, gamma counting); format: cell-based, human; settings: for Radioligand (CPM ± SD), Non-Decay Corrected: 100 µg DNA, SKNSH (SST-2 negative); for % Specifically Bound / CPM Specifically Bound (Difference), Non-Decay Corrected / Radioligand + Unlabeled Ligand (CPM ± SD), Non-Decay Corrected: SKNSH DNA; for Radioligand + Unlabeled Ligand (CPM ± SD), Non-Decay Corrected: + octreotide acetate
Experimental: (§1) Cells were removed from the culture surface using a sterile rubber policeman. The suspended cells were washed three times in cold Dulbecco's phosphate buffered saline and processed through a DNA extraction procedure according to the vendor's directions (GenomicPrep® cells and Tissue DNA Isolation Kit, Pharmacia Biotech, Piscataway, NJ). The cells were incubated in the Cell Lysis Solution of the DNA isolation kit at 37°C for 10 minutes. Next, 3 µl of the Rnase Solution was added to the cell lysate, followed by thorough mixing and incubation at 37°C for 1 hour. The samples were cooled to room temperature, and 200 µl of the Protein Precipitation Solution were added. Following vortexing, the contents of each tube were centrifuged at 14,000 x g for 1 min, and the DNA pellet was washed with 70% ethanol. Following drying the DNA was hydrated in a DNA Hydration Solution, and the concentration of DNA determined by spectrometry at 260 nm. One hundred microgram (100 µg) quantities of each treatment were transferred to radioactive counting vials, and the amount of radioactivity associated with each was measured in a Beckman 5500 gamma counter. The data, as presented in Table 6, were obtained as counts per minute (cpm). The differences between radioactivity measured in cells incubated solely with radioligand and in cells incubated with both radioligand and unlabeled ligand were statistically analyzed using ANOVA.
(§2) Additionally, the DNA from each flask was divided in half, and 1 mg of DNA from each flask was treated with proteinase-K (Lite Technologies, Gaithersburg, MD) for 1 hour at 37°C. The enzyme-treated DNA was then reprecipitated with ethanol and sodium acetate, washed with cold ethanol, and redissolved in DNA hydration solution. The concentration was determined by spectrophotometry at 260 nm. One hundred microgram (100 µg) of protease-treated DNA and an equal quantity of untreated DNA were transferred to radioactive counting vials and the amount of radioactivity measured in a Beckman 5500 gamma counter, as described above. The data, as presented in Table 7 and Figure 13, were obtained as counts per minute (cpm).

[3] = system: DNA of IMR-32 cells; test: as above; format: cell-based, human; settings: for Radioligand (CPM ± SD), Non-Decay Corrected: 100 µg DNA, IMR-32 (SST-2 positive); for % Specifically Bound / CPM Specifically Bound (Difference), Non-Decay Corrected / Radioligand (CPM ± SD), Decay Corrected Values / SPM Specifically Bound (Difference), Decay Corrected Values / Radioligand + Unlabeled Ligand (CPM ± SD), Decay Corrected Values / Radioligand + Unlabeled Ligand (CPM ± SD), Non-Decay Corrected: IMR-32 DNA; for Radioligand + Unlabeled Ligand (CPM ± SD), Decay Corrected Values / Radioligand + Unlabeled Ligand (CPM ± SD), Non-Decay Corrected: + octreotide acetate
Experimental: as §1, §2

[4] = NCI grading scale, monthly 180 mCi doses
[5] = 100µg DNA, mean of three experiments
[6] = 100µg DNA, proteinase-K, mean of three experiments
[7] = 100µg DNA, single replicate experiments

(^111In-DTPA-D-Phe^1)-octreotide [^111In-pentetreotide]
Treatment-related toxicity: Grade I Hb [1, 4]: 2
Treatment-related toxicity: Grade I WBC [1, 4]: 1
Treatment-related toxicity: Grade II WBC [1, 4]: 1
Treatment-related toxicity: Grade III platelet [1, 4]: 2
Clinical benefits (reduced pain, weight gain, reduced malaise, etc.) ([1]; monthly 180 mCi doses (bolus, then infusion over 72 hr, then 24 hr)): 6 of the 10
Partial radiographic responses (greater than 50% reduction in the product of perpendicular tumor diameters) ([1]; monthly 180 mCi doses): 2 patients
significant tumor necrosis ([1]; monthly 180 mCi doses): 7 of the 10
Radioligand (CPM ± SD), Non-Decay Corrected ([2]; 60 minutes): 85 ± 8 CPM
Radioligand (CPM ± SD), Non-Decay Corrected ([2]; 4320 minutes): 232 ± 10 CPM
Radioligand (CPM ± SD), Non-Decay Corrected ([2]; […]): 87 ± 1 CPM
Binding to Cellular DNA, SKNSH CELLS Untreated (CPM), Mean + S.D. [2, 5]: 285 ± 56 CPM
Binding to Cellular DNA, SKNSH CELLS Protease Treated (CPM), Mean + S.D. [2, 6]: 247 ± 149 CPM
Binding to Cellular DNA, SKNSH CELLS Untreated (CPM) [2, 7]: 316 CPM and 319 CPM
% Specifically Bound ([2]; 60 minutes): 0%
CPM Specifically Bound (Difference), Non-Decay Corrected ([2]; 60 minutes): -6 CPM
CPM Specifically Bound (Difference), Non-Decay Corrected ([2]; 4320 minutes): +58 CPM
Radioligand + Unlabeled Ligand (CPM ± SD), Non-Decay Corrected ([2]; 60 minutes): 91 ± 25 CPM
Radioligand + Unlabeled Ligand (CPM ± SD), Non-Decay Corrected ([2]; 4320 minutes): 174 ± 41 CPM
% Specifically Bound ([2]; […]): 8%
CPM Specifically Bound (Difference), Non-Decay Corrected ([2]; […]): +7 CPM
Radioligand (CPM ± SD), Non-Decay Corrected ([3]; 30 mins): 128 ± 28 CPM
Radioligand (CPM ± SD), Non-Decay Corrected ([3]; 60 mins): 152 ± 165 CPM
Radioligand (CPM ± SD), Non-Decay Corrected ([3]; 180 mins): 291 ± 44 CPM
Radioligand (CPM ± SD), Non-Decay Corrected ([3]; 1440 mins): 264 ± 104 CPM
Radioligand (CPM ± SD), Non-Decay Corrected ([3]; 2880 mins): 624 ± 59 CPM
Binding to Cellular DNA, IMR-32 CELLS Untreated (CPM), Mean + S.D. [3, 5]: 12,066 ± 2273 CPM
Binding to Cellular DNA, IMR-32 CELLS Protease Treated (CPM) ([3]; 100µg DNA, proteinase-K 1 hour 37°C, single replicate experiments): 10,276 CPM and 9.564 CPM and 12,648 CPM
Binding to Cellular DNA, IMR-32 CELLS Protease Treated (CPM), Mean + S.D. [3, 6]: 10,829 ± 1614 CPM
Binding to Cellular DNA, IMR-32 CELLS Untreated (CPM) [3, 7]: 11,512 CPM and 10,122 CPM and 14,566 CPM
total bound CPM removed by the protease treatment ([3]; DNA of IMR-32 cells, proteinase-K): 10-13%
% Specifically Bound ([3]; 30 mins): 35%
CPM Specifically Bound (Difference), Non-Decay Corrected ([3]; 30 mins): 45 CPM
Radioligand (CPM ± SD), Decay Corrected Values ([3]; 30 mins): 128 ± 28 CPM
SPM Specifically Bound (Difference), Decay Corrected Values ([3]; 30 mins): 45 CPM
% Specifically Bound ([3]; 60 mins): 45%
CPM Specifically Bound (Difference), Non-Decay Corrected ([3]; 60 mins): 69 CPM
Radioligand (CPM ± SD), Decay Corrected Values ([3]; 60 mins): 157 ± 165 CPM
SPM Specifically Bound (Difference), Decay Corrected Values ([3]; 60 mins): 69 CPM
% Specifically Bound ([3]; 180 mins): 43%
CPM Specifically Bound (Difference), Non-Decay Corrected ([3]; 180 mins): 126 CPM
Radioligand (CPM ± SD), Decay Corrected Values ([3]; 180 mins): 291 ± 44 CPM
SPM Specifically Bound (Difference), Decay Corrected Values ([3]; 180 mins): 126 CPM
% Specifically Bound ([3]; 1440 mins): 67%
CPM Specifically Bound (Difference), Non-Decay Corrected ([3]; 1440 mins): 177 CPM
Radioligand (CPM ± SD), Decay Corrected Values ([3]; 1440 mins): 338 ± 133 CPM
SPM Specifically Bound (Difference), Decay Corrected Values ([3]; 1440 mins): 226 CPM
% Specifically Bound ([3]; 2880 mins): 67%
CPM Specifically Bound (Difference), Non-Decay Corrected ([3]; 2880 mins): 421 CPM
Radioligand (CPM ± SD), Decay Corrected Values ([3]; 2880 mins): 1023 ± 97 CPM
SPM Specifically Bound (Difference), Decay Corrected Values ([3]; 2880 mins): 690 CPM
Radioligand + Unlabeled Ligand (CPM ± SD), Decay Corrected Values ([3]; 30 mins): 83 ± 12 CPM
Radioligand + Unlabeled Ligand (CPM ± SD), Non-Decay Corrected ([3]; 30 mins): 83 ± 12 CPM
Radioligand + Unlabeled Ligand (CPM ± SD), Decay Corrected Values ([3]; 60 mins): 83 ± 1 CPM
Radioligand + Unlabeled Ligand (CPM ± SD), Non-Decay Corrected ([3]; 60 mins): 83 ± 1 CPM
Radioligand + Unlabeled Ligand (CPM ± SD), Decay Corrected Values ([3]; 180 mins): 165 ± 15 CPM
Radioligand + Unlabeled Ligand (CPM ± SD), Non-Decay Corrected ([3]; 180 mins): 165 ± 15 CPM
Radioligand + Unlabeled Ligand (CPM ± SD), Decay Corrected Values ([3]; 1440 mins): 112 ± 8 CPM
Radioligand + Unlabeled Ligand (CPM ± SD), Non-Decay Corrected ([3]; 1440 mins): 87 ± 6 CPM
Radioligand + Unlabeled Ligand (CPM ± SD), Decay Corrected Values ([3]; 2880 mins): 332 ± 33 CPM
Radioligand + Unlabeled Ligand (CPM ± SD), Non-Decay Corrected ([3]; 2880 mins): 203 ± 20 CPM
